Columns and labels:
Assay in all cases: SILAC LC-MS ABPP
Assay type in all cases: cell-based
Settings in all cases: 25 μM 2 h, live DM93 cells
P55795 = target: T1, P55795 (Homo sapiens, UniProt P55795)
T1 construct: Probe-modified proteins from the soluble fraction were conjugated to a desthiobiotin-azide tag; endogenous in cells; host or cells: DM93 cells (SILAC)
Method in brief: (§1)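 DM93 SILAC cells, ligand 25 μM vs DMSO, 2 h; HHS-475 100 μM, 2 h; CuAAC desthiobiotin tag; 1:1 pool; trypsin; avidin enrichment; LC-MS/MS site quantification.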

P22059 = target: T2, P22059 (Homo sapiens, UniProt P22059)
T2 construct: endogenous in cells; host or cells: DM93 (SILAC)
Method in brief: as §1

Q99797 = target: T3, Q99797 (Homo sapiens, UniProt Q99797)
T3 construct: endogenous in cells; host or cells: DM93 cells (SILAC), treated live; soluble proteome analysed
Method in brief: as §1

Q9NUJ1 = target: T4, Q9NUJ1 (Homo sapiens, UniProt Q9NUJ1)
T4 construct: endogenous in cells; host or cells: DM93 cells (SILAC), treated live; soluble proteome analysed
Method in brief: as §1

Q9UPP1 = target: T5, Q9UPP1 (Homo sapiens, UniProt Q9UPP1)
T5 construct: endogenous in cells; host or cells: DM93 cells (SILAC)
Method in brief: as §1

P13674 = target: T6, P13674 (Homo sapiens, UniProt P13674)
T6 construct: endogenous in cells; host or cells: DM93 cells (SILAC)
Method in brief: as §1

P26599 = target: T7, P26599 (Homo sapiens, UniProt P26599)
T7 construct: endogenous in cells; host or cells: DM93 (SILAC)
Method in brief: as §1

P52597 = target: T8, P52597 (Homo sapiens, UniProt P52597)
T8 construct: endogenous in cells; host or cells: DM93 cells (SILAC)
Method in brief: as §1

P53621 = target: T9, P53621 (Homo sapiens, UniProt P53621)
T9 construct: endogenous in cells; host or cells: DM93 cells (SILAC)
Method in brief: as §1

P60900 = target: T10, P60900 (Homo sapiens, UniProt P60900)
T10 construct: endogenous in cells; host or cells: DM93 cells (SILAC)
Method in brief: as §1

Q9HCH5 = target: T11, Q9HCH5 (Homo sapiens, UniProt Q9HCH5)
T11 construct: endogenous in cells; host or cells: DM93 cells (SILAC), treated live; soluble proteome analysed
Method in brief: as §1

P20618 = target: T12, P20618 (Homo sapiens, UniProt P20618)
T12 construct: endogenous in cells; host or cells: DM93 (SILAC)
Method in brief: as §1

P78527 = target: T13, P78527 (Homo sapiens, UniProt P78527)
T13 construct: performing SuTEx compound screening directly in cells; endogenous in cells; host or cells: DM93 cells (SILAC)
Method in brief: as §1

Q13330 = target: T14, Q13330 (Homo sapiens, UniProt Q13330)
T14 construct: performing SuTEx compound screening directly in cells; endogenous in cells; host or cells: DM93 cells (SILAC), soluble fraction
Method in brief: as §1

O75351 = target: T15, O75351 (Homo sapiens, UniProt O75351)
T15 construct: endogenous in cells; host or cells: DM93
Method in brief: as §1

P14550 = target: T16, P14550 (Homo sapiens, UniProt P14550)
T16 construct: endogenous in cells; host or cells: DM93 cells (SILAC)
Method in brief: as §1

P26358 = target: T17, P26358 (Homo sapiens, UniProt P26358)
T17 construct: endogenous in cells; host or cells: DM93 (SILAC)
Method in brief: as §1

Q96BR5 = target: T18, Q96BR5 (Homo sapiens, UniProt Q96BR5)
T18 construct: endogenous in cells; host or cells: DM93 cells (SILAC), treated live; soluble proteome analysed
Method in brief: as §1

T1 sequence (P55795 whole entry): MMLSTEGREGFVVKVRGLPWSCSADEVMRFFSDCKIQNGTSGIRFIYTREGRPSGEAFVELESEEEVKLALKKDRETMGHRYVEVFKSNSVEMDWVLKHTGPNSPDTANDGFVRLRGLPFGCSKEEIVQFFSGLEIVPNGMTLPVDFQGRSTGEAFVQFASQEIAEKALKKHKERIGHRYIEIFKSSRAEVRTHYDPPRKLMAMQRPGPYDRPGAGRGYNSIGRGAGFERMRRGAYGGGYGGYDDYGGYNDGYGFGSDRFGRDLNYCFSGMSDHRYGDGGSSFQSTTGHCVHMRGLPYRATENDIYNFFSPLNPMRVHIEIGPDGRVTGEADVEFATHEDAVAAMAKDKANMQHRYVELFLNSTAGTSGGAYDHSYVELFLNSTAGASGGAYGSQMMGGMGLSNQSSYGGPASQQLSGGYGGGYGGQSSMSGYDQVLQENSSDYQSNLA
T8 sequence (P52597 whole entry): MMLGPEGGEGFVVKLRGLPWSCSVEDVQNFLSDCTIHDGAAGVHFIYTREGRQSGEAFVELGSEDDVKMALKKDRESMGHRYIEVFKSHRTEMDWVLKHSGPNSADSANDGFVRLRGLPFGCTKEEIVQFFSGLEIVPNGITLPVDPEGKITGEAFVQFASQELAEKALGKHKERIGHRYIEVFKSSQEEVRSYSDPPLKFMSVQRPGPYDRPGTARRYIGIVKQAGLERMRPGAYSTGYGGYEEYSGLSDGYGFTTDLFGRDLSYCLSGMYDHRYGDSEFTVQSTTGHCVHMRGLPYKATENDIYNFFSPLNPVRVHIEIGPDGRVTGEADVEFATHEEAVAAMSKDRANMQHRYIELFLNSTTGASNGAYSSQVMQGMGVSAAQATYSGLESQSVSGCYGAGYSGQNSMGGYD
T4 sequence (Q9NUJ1 53-306): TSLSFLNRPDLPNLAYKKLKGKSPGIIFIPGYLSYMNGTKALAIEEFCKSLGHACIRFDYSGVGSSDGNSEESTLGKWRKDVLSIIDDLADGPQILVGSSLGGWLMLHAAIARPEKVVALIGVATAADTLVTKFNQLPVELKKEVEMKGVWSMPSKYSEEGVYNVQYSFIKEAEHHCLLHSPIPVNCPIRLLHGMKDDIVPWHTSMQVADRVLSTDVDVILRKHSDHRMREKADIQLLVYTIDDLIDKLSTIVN
T17 sequence (P26358 whole entry): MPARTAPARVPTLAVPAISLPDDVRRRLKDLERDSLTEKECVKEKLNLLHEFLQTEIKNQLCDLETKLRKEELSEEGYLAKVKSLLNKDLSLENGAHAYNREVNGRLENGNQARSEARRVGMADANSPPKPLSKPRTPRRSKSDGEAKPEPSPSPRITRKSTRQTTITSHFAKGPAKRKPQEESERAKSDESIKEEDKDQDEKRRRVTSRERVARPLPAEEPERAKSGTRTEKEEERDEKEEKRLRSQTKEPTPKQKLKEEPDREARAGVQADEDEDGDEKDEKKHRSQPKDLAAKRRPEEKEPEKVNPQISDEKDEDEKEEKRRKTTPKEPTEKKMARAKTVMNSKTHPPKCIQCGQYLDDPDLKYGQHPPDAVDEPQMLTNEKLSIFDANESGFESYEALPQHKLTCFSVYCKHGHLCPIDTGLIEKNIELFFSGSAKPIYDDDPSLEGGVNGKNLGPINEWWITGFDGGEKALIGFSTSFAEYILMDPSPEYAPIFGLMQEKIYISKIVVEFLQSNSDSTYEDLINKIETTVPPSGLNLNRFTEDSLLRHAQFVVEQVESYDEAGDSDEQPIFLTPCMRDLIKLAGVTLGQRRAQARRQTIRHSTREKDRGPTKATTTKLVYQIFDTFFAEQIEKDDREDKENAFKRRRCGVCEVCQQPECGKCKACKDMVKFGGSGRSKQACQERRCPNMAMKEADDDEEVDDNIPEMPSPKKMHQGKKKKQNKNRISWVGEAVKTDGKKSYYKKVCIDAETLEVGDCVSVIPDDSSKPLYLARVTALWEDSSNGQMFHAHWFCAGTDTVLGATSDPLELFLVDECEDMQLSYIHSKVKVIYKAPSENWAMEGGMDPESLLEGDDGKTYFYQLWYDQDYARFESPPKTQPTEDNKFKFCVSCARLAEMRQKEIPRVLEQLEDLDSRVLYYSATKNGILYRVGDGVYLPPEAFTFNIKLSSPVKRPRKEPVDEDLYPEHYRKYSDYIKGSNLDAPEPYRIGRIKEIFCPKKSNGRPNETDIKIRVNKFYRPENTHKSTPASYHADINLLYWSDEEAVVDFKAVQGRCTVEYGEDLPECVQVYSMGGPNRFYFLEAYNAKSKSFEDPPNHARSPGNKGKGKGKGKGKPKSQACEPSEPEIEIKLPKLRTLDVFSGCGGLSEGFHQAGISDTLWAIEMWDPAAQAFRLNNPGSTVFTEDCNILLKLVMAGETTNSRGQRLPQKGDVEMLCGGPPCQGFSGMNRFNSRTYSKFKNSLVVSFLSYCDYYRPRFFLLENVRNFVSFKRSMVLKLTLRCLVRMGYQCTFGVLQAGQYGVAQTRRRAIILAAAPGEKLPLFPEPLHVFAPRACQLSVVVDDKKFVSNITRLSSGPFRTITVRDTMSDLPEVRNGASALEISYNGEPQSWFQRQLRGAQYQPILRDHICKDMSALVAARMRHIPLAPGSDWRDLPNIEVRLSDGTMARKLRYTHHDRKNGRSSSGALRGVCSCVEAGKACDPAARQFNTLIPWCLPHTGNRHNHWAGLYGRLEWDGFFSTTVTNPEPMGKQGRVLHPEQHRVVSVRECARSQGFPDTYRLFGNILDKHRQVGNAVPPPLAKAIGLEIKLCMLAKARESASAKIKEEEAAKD
T7 sequence (P26599 whole entry): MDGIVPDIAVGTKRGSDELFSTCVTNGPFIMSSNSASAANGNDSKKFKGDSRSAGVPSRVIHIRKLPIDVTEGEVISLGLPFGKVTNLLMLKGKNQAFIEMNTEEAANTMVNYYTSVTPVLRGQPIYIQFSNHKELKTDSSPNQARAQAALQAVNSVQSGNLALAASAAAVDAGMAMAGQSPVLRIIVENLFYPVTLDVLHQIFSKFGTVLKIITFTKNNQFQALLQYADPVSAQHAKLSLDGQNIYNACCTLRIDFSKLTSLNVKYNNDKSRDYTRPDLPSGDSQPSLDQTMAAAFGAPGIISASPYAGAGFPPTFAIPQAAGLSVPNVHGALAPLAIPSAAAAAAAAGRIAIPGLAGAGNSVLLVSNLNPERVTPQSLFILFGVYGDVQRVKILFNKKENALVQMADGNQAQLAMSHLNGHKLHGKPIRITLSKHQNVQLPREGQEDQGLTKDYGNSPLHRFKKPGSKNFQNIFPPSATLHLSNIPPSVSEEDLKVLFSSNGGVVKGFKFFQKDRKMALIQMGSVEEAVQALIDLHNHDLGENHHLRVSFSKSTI
T6 sequence (P13674 18-534): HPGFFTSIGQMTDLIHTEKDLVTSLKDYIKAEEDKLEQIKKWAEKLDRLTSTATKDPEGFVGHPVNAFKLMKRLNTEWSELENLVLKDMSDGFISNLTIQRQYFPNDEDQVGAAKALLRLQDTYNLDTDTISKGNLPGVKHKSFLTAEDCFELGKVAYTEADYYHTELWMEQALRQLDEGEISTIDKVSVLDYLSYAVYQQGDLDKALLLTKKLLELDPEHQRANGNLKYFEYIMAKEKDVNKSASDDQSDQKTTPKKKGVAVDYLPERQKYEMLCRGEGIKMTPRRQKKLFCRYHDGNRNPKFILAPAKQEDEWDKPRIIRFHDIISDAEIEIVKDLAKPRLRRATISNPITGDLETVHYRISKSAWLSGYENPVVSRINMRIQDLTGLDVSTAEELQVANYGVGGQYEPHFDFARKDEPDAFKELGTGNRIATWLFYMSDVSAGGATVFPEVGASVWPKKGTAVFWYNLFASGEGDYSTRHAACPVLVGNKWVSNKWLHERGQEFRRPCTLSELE
T6 sequence (P07237 18-508 partner): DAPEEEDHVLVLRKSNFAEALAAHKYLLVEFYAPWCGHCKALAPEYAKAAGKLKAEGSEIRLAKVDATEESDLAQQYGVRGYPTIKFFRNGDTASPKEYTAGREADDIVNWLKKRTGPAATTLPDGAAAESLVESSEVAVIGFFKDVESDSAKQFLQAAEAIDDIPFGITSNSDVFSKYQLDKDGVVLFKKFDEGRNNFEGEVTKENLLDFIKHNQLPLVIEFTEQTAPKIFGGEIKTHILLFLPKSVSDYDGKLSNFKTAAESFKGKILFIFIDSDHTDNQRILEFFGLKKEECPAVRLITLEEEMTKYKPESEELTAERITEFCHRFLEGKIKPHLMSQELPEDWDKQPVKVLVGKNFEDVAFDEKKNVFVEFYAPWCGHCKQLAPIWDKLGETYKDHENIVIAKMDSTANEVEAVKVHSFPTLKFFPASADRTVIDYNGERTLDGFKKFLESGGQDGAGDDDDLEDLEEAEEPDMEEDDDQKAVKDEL
T16 sequence (P14550 whole entry): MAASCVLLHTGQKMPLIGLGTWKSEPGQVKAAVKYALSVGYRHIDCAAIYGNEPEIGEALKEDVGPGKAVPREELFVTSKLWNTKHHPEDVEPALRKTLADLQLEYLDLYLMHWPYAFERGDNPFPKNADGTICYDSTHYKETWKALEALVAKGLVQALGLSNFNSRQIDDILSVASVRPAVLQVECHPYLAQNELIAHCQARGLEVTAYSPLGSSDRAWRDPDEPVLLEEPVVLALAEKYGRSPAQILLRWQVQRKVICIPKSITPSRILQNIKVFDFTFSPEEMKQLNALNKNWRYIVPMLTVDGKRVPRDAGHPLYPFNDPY
T18 sequence (Q96BR5 whole entry): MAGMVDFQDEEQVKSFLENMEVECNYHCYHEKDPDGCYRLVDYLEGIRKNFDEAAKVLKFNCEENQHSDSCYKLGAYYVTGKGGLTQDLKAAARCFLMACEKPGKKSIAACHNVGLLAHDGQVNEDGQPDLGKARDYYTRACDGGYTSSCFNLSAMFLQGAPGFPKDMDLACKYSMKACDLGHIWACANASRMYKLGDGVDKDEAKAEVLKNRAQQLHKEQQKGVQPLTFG

Structure (SMILES): O=C(c1ccc(S(=O)(=O)n2cncn2)cc1)N1CCC(c2ccccc2)CC1 [HHS-0701, (4-((1H-1,2,4-triazol-1-yl)sulfonyl)phenyl)(4-phenylpiperidin-1-yl)methanone]
- liganded tyrosine site 240 (P55795): HHS0701.Y (tyrosine sites that showed >80% reductions (SR >5) in probe labeling in cells treated with compounds (liganded sites))
- liganded tyrosine site 243 (P55795): HHS0701.Y (tyrosine sites that showed >80% reductions (SR >5) in probe labeling in cells treated with compounds (liganded sites))

Structure (SMILES): O=C(NCC1CC1)c1ccc(S(=O)(=O)n2cncn2)cc1 [HHS-0201, 4-((1H-1,2,4-triazol-1-yl)sulfonyl)-N-(cyclopropylmethyl)benzamide]
- liganded tyrosine site 764 (P22059): HHS0201.Y|HHS0701.Y (tyrosine sites that showed >80% reductions (SR >5) in probe labeling in cells treated with compounds (liganded sites))
- liganded tyrosine site 273 (Q99797): HHS0201.Y (tyrosine sites that showed >80% reductions (SR >5) in probe labeling in cells treated with compounds (liganded sites))
- liganded tyrosine site 215 (Q9NUJ1): HHS0201.Y|HHS0701.Y (tyrosine sites that showed >80% reductions (SR >5) in probe labeling in cells treated with compounds (liganded sites))
- liganded tyrosine site 383 (Q9UPP1): HHS0201.Y (tyrosine sites that showed >80% reductions (SR >5) in probe labeling in cells treated with compounds (liganded sites))

Structure (SMILES): O=C(NC1CC1)c1ccc(S(=O)(=O)n2cncn2)cc1 [HHS-0101, 4-((1H-1,2,4-triazol-1-yl)sulfonyl)-N-cyclopropylbenzamide]
- liganded tyrosine site 250 (P13674): HHS0101.Y (tyrosine sites that showed >80% reductions (SR >5) in probe labeling in cells treated with compounds (liganded sites))
- liganded tyrosine site 430 (P26599): HHS0101.Y|HHS0201.Y|HHS0401.Y (tyrosine sites that showed >80% reductions (SR >5) in probe labeling in cells treated with compounds (liganded sites))
- liganded tyrosine site 210 (P52597): HHS0101.Y|HHS0201.Y|HHS0701.Y (tyrosine sites that showed >80% reductions (SR >5) in probe labeling in cells treated with compounds (liganded sites))
- liganded tyrosine site 298 (P52597): HHS0101.Y|HHS0701.Y (tyrosine sites that showed >80% reductions (SR >5) in probe labeling in cells treated with compounds (liganded sites))
- liganded tyrosine site 628 (P53621): HHS0101.Y|HHS0401.Y|HHS0701.Y (tyrosine sites that showed >80% reductions (SR >5) in probe labeling in cells treated with compounds (liganded sites))
- liganded tyrosine site 103 (P60900): HHS0101.Y|HHS0201.Y|HHS0401.Y (tyrosine sites that showed >80% reductions (SR >5) in probe labeling in cells treated with compounds (liganded sites))
- liganded tyrosine site 289 (Q9HCH5): HHS0101.Y|HHS0201.Y|HHS0301.Y|HHS0401.Y|HHS0701.Y (tyrosine sites that showed >80% reductions (SR >5) in probe labeling in cells treated with compounds (liganded sites))

Structure (SMILES): O=C(NC1CCCCC1)c1ccc(S(=O)(=O)n2cncn2)cc1 [HHS-0301, 4-((1H-1,2,4-triazol-1-yl)sulfonyl)-N-cyclohexylbenzamide]
- liganded tyrosine site 135 (P20618): HHS0301.Y (tyrosine sites that showed >80% reductions (SR >5) in probe labeling in cells treated with compounds (liganded sites))
- liganded tyrosine site 701 (P78527): HHS0301.Y (tyrosine sites that showed >80% reductions (SR >5) in probe labeling in cells treated with compounds (liganded sites))
- liganded tyrosine site 22 (Q13330): HHS0301.Y (tyrosine sites that showed >80% reductions (SR >5) in probe labeling in cells treated with compounds (liganded sites))

Structure (SMILES): O=C(NCc1ccccc1)c1ccc(S(=O)(=O)n2cncn2)cc1 [HHS-0401, 4-((1H-1,2,4-triazol-1-yl)sulfonyl)-N-benzylbenzamide]
- liganded tyrosine site 47 (O75351): HHS0401.Y (tyrosine sites that showed >80% reductions (SR >5) in probe labeling in cells treated with compounds (liganded sites))
- liganded tyrosine site 135 (P14550): HHS0401.Y (tyrosine sites that showed >80% reductions (SR >5) in probe labeling in cells treated with compounds (liganded sites))
- liganded tyrosine site 367 (P26358): HHS0401.Y (tyrosine sites that showed >80% reductions (SR >5) in probe labeling in cells treated with compounds (liganded sites))
- liganded tyrosine site 72 (Q96BR5): HHS0401.Y (tyrosine sites that showed >80% reductions (SR >5) in probe labeling in cells treated with compounds (liganded sites))

— US20240210412A1, “SULFONYL-TRIAZOLE COMPOUNDS USEFUL AS LIGANDS AND INHIBITORS OF PROSTAGLANDIN REDUCTASE 2” (University of Virginia Patent Foundation, priority 2021, published 2024)
